What all share (type): biochemical
In experiment [1] the target is T1, Sec597Cys SmTGR (Schistosoma mansoni, UniProt Q962Y6). The experiment can be described thus: Substrate specificity, NADPH consumption, Sec597Cys. As to conditions: 100 μM NADPH.
The target of another experiment is T2, wild-type TGR (SmTGR) (Schistosoma mansoni, UniProt Q962Y6).
T2 sequence (Q962Y6 1-598): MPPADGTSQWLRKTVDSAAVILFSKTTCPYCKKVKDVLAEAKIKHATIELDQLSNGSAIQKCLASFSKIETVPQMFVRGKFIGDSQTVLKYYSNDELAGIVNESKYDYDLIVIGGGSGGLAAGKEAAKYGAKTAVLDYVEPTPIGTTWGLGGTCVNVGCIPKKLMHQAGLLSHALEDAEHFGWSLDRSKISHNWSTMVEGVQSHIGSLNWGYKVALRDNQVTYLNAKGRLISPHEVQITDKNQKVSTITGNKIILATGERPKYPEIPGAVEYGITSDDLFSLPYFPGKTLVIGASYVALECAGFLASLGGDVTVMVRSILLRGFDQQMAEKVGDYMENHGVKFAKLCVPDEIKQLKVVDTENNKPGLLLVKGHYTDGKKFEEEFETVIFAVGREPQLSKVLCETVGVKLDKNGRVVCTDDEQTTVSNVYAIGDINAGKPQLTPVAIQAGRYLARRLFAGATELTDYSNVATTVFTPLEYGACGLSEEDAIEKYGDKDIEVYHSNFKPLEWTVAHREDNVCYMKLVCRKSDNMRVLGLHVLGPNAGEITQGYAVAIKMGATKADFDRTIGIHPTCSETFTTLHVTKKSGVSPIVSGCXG
The experiment can be described thus: Substrate specificity, NADPH consumption, wild-type TGR.

The target of experiment [2] is T3, WT SmTGR (Schistosoma mansoni, UniProt Q962Y6). Briefly: Inhibition of GR activity of WT SmTGR.
Experiment [3] deals with T1, Sec597Cys SmTGR. Briefly: Inhibition of GR activity of Sec597Cys.
Experiment [4] deals with T1, Sec597Cys SmTGR. The experiment can be described thus: Inhibition of TrxR activity of Sec597Cys.
Experiment [5] concerns the target T3, WT SmTGR. Briefly: Inhibition of TrxR activity of WT SmTGR.
Experiment [6] deals with T1, Sec597Cys SmTGR. The experiment can be described thus: Inhibition of DTNB activity of Sec597Cys.
The target of experiment [7] is T3, WT SmTGR. Briefly: Inhibition of DTNB activity of WT SmTGR.
[8] abbreviates: Sec597Cys 100 or 150 nM, ND = undetectable activity.
Where [9] appears, read: WT enzyme 20 or 100 nM, 100 μM NADPH, ND = undetectable activity.

Data on six compounds can be found in paper PMC3658134 (Biochemistry, 2011).

Like-named read-outs stand apart in the source and are kept apart here.

Consider `O=C(O)CCCC[C@@H]1CCSS1` (racemic) [Lipoic acid, lipoic acid], for which the Michaelis-Menten constant (Km) is 9.3 ± 2.9 mM on Sec597Cys SmTGR [1] (setting [8]) and 2.9 ± 0.7 mM on wild-type TGR (SmTGR) (setting [9]).

As to `O=C1NC(=O)C(=O)C(=O)N1` [Alloxan, alloxan], the Michaelis constant (Km) on Sec597Cys SmTGR [1] (setting [8]) was determined as 0.88 ± 0.07 mM.

With `N#Cc1c(-c2ccccc2)no[n+]1[O-]` [Fx, 4-phenyl-1,2,5-oxadiazole-3-carbonitrile-2-oxide], the half-inhibitory concentration (IC50) on WT SmTGR [2] was determined as 3.2 µM; on Sec597Cys SmTGR [3], 2.5 µM; against Sec597Cys SmTGR [4], 2.1 µM; at WT SmTGR [5], 5.4 µM; against Sec597Cys SmTGR [6], 6 µM; on WT SmTGR [7], 3 µM.

As for `OO` [H2O2, hydrogen peroxide], the Michaelis constant (Km) on Sec597Cys SmTGR [1] (setting [8]) is 52.4 ± 9.8 mM; at wild-type TGR (SmTGR), 17.3 ± 7.6 mM. The Vmax on wild-type TGR (SmTGR) (pH 7.4) was 4.6 ± 0.7 s⁻¹.

In the case of `O=[Se](O)O` [NaSeO3, sodium selenite], the Michaelis-Menten constant (Km) at Sec597Cys SmTGR [1] (Sec597Cys 100 nM) is 0.0173 ± 0.0044 mM; at wild-type TGR (SmTGR) (WT enzyme 100 nM, 100 μM NADPH) it was 0.0087 ± 0.0025 mM.

Consider `CC(C)(C)OO` [t-Butyl-OOH, tert-butyl hydroperoxide], for which the values for the Km on Sec597Cys SmTGR [1] (setting [8]) and at wild-type TGR (SmTGR) (setting [9]) were 53 ± 5 mM and 75 ± 10 mM, respectively.

A word on the Km: it is the substrate concentration at which the rate is half of its maximum. A word on the IC50: it is the concentration that gives 50% inhibition. Lower therefore signals higher potency.
